{"source": "paper PMC7248105", "about": "“Photoinduced monooxygenation involving NAD(P)H-FAD sequential single-electron transfer” (Nature Communications, 2020)", "key": {"[1]": {"system": "NC(=O)C1=CN([C@@H]2O[C@H](COP(=O)(O)OP(=O)(O)OC[C@H]3O[C@@H](n4cnc5c(N)ncnc54)[C@H](OP(=O)(O)O)[C@@H]3O)[C@@H](O)[C@H]2O)C=CC1", "experiment": "purified protein", "conditions": "FAD"}, "[2]": {"system": "NC(=O)C1=CN([C@@H]2O[C@H](COP(=O)(O)OP(=O)(O)OC[C@H]3O[C@@H](n4cnc5c(N)ncnc54)[C@H](O)[C@@H]3O)[C@@H](O)[C@H]2O)C=CC1", "experiment": "purified protein", "conditions": "FAD"}, "[3]": {"target": "T1, PqsL (Pseudomonas aeruginosa, UniProt Q9HWJ1)", "T1 construct": "final models contain residues 3–370", "experiment": "X-ray crystal structure with FAD and 2-ABA; KD by fluorescence spectroscopy", "format": "binding"}, "[4]": {"target": "T1, PqsL", "experiment": "FAD fluorescence polarization; X-ray crystal structure", "format": "binding"}, "[5]": {"target": "T2, PqsL-Q (Pseudomonas aeruginosa, UniProt Q9HWJ1, C105G/G45R/I43R/R41Y)", "T2 construct": "final models contain residues 3–370", "T2 sequence (Q9HWJ1 1-398 R41Y/I43R/G45R/C105G)": "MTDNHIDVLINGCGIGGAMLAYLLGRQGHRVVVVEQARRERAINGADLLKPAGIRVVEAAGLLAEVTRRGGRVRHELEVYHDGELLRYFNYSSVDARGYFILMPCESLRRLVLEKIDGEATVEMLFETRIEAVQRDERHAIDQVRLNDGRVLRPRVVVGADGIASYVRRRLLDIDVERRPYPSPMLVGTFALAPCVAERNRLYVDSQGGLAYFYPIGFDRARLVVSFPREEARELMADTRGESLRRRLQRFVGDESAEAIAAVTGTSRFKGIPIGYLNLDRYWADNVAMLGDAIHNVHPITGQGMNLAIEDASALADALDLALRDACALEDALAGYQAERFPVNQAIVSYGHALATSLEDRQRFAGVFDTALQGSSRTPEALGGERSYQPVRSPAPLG", "experiment": "FAD fluorescence polarization; X-ray crystal structure", "format": "binding"}, "[6]": {"target": "T3, PqsL (Pseudomonas aeruginosa, UniProt Q9HWJ1, P273A)", "T3 sequence (Q9HWJ1 1-398 P273A)": "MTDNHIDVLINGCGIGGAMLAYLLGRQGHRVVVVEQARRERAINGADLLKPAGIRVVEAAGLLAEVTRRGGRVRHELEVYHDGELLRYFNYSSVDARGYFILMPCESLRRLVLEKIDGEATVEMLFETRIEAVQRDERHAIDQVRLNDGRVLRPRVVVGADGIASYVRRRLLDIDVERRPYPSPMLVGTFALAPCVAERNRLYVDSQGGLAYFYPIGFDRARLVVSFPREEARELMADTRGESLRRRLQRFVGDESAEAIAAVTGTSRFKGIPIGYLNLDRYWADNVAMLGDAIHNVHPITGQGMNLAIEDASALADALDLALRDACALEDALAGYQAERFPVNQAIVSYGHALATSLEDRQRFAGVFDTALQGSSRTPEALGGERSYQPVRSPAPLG", "experiment": "FAD binding affinity (fluorescence spectroscopy)"}, "[7]": {"target": "the molecule itself", "experiment": "SEC; analytical gel filtration, Superdex 200 Increase 10/300 GL, 20 mM tris-HCl pH 8.5 without NaCl, 12 °C, calibrated with Bio-Rad standard"}}, "data": [{"molecule": "PqsL (Pseudomonas aeruginosa PAO1)", "values": [{"measurement": "Km", "setting": "[1]", "result": "157.5 ± 18.9", "unit": "µM"}, {"measurement": "Km", "setting": "[2]", "result": "310.9 ± 21.6", "unit": "µM"}]}, {"molecule": "Nc1ccccc1C(=O)CC(=O)O", "note": "[2-ABA, 2-aminobenzoylacetate]", "values": [{"measurement": "Kd", "setting": "[3]", "result": "38.4 ± 3.98", "unit": "µM"}]}, {"molecule": "Cc1cc2nc3c(=O)[nH]c(=O)nc-3n(C[C@H](O)[C@H](O)[C@H](O)COP(=O)(O)OP(=O)(O)OC[C@H]3O[C@@H](n4cnc5c(N)ncnc54)[C@H](O)[C@@H]3O)c2cc1C", "note": "[FAD]", "values": [{"measurement": "Kd", "setting": "[4]", "result": "0.25 ± 0.0298", "unit": "µM"}, {"measurement": "Kd", "setting": "[5]", "result": "0.0375 ± 0.0067", "unit": "µM"}, {"measurement": "Kd", "setting": "[6]", "result": 64, "unit": "µM"}]}, {"molecule": "PqsL (flavoprotein monooxygenase, wild type) (enzyme, Pseudomonas aeruginosa, PqsL, FAD-dependent monooxygenase of alkyl quinolone N-oxide biosynthesis, Pseudomonas aeruginosa; the crystal models hold residues 3-370; One protomer is written; also called Wild-type PqsL; FPMO PqsL; source: E. coli LMG194 (pHERD30T), purified (Ni-NTA, Resource Q anion exchange)) MTDNHIDVLINGCGIGGAMLAYLLGRQGHRVVVVEQARRERAINGADLLKPAGIRVVEAAGLLAEVTRRGGRVRHELEVYHDGELLRYFNYSSVDARGYFILMPCESLRRLVLEKIDGEATVEMLFETRIEAVQRDERHAIDQVRLNDGRVLRPRVVVGADGIASYVRRRLLDIDVERRPYPSPMLVGTFALAPCVAERNRLYVDSQGGLAYFYPIGFDRARLVVSFPREEARELMADTRGESLRRRLQRFVGDESAEAIAAVTGTSRFKGIPIGYLNLDRYWADNVAMLGDAIHNVHPITGQGMNLAIEDASALADALDLALRDACALEDALAGYQAERFPVNQAIVSYGHALATSLEDRQRFAGVFDTALQGSSRTPEALGGERSYQPVRSPAPLG", "values": [{"measurement": "stoichiometry N", "setting": "[7]", "result": 2}]}]}
